Results from patent US20070009495A1, “Method for treating or preventing systemic inflammation in formula-fed infants” (priority 2005, published 2007).

Columns and labels:
Format in all cases: in vivo, Sprague-Dawley infant rats
[1] = tested on: TNF-α; test: TNF-α production by ELISA in plasma and lung of rat pups
Description: (§1) This example describes the materials and methods necessary to show the effect of LGG on formula-fed neonatal rat pups. In two separate experiments, ten Sprague-Dawley (Taconic, Germantown, N.Y.) infant rats were randomly assigned to two gastrostomy feeding groups with five rats per group. Gastrostomy feeding, using the rat infant “pup-in-the-cup” model, began on day 7 of life of the rat pups. The gastrostomy feeding tubes were constructed from 14-cm sections of polyethylene tubing that were inserted into the stomach of the pups. This is a commonly used model in studies of developmental nutrition when it is important to manipulate nutritional composition in the absence of maternal feedings. […]
(§2) During a 2-day acclimation period, the gastrostomy-fed rat pups were fed with rat milk substitute (RMS). […] All of the gastrostomy-fed groups received the same quantity of fat and carbohydrates.
(§3) Lipopolysaccharide (LPS) from Escherichia coli 0127:B8 (LPS; Sigma, St. Louis, Mo.) was dissolved in water by vortexing at a concentration of 2 mg/ml. […] This dose was determined in pilot studies to result in occasional shivering, piloerection, and poor weight gain but was not associated with a significant increase in mortality over a 6-day period. […]
To further investigate the effects of the diets on TNF-α, TNF-α production was evaluated by ELISA in the plasma and lung. […]

[2] = tested on: CINC-1; test: CINC-1 peptide production by ELISA in rat pup tissues
Description: This example describes the materials and methods necessary to show the effect of LGG on formula-fed neonatal rat pups. In two separate experiments, ten Sprague-Dawley (Taconic, Germantown, N.Y.) infant rats were randomly assigned to two gastrostomy feeding groups with five rats per group. Gastrostomy feeding, using the rat infant “pup-in-the-cup” model, began on day 7 of life of the rat pups. The gastrostomy feeding tubes were constructed from 14-cm sections of polyethylene tubing that were inserted into the stomach of the pups. This is a commonly used model in studies of developmental nutrition when it is important to manipulate nutritional composition in the absence of maternal feedings. The gastrostomy placement was done under isoflurane anesthesia. Timer-controlled syringe pumps were connected to the feeding tubes and were set to feed the rats for the first 20 minutes of every hour at a weight-dependent flow rate. Five mother-reared rats of the same age were used as reference controls.
During a 2-day acclimation period, the gastrostomy-fed rat pups were fed with rat milk substitute (RMS). The protein component of the RMS was between 30 and 40 g/kg/day, which is similar to that of mother's milk and is required for normal growth. One of the RMS fed groups was also given a supplement of 1×10^8 cfu/L/kg/day LGG. The other group was fed RMS alone, without LGG supplementation. All of the gastrostomy-fed groups received the same quantity of fat and carbohydrates.
Lipopolysaccharide (LPS) from Escherichia coli 0127:B8 (LPS; Sigma, St. Louis, Mo.) was dissolved in water by vortexing at a concentration of 2 mg/ml. The gastrostomy-fed rats were given between 0.25 and 0.5 mg/kg/day of LPS via the gastrostomy tube starting 2 days after the initiation of artificial feeding. The pups were given LPS supplementation for 6 days. This dose was determined in pilot studies to result in occasional shivering, piloerection, and poor weight gain but was not associated with a significant increase in mortality over a 6-day period.
At the end of the 6-day treatment period, the rat pups were euthanized with an overdose of pentobarbital sodium. The small intestine was removed and separated into three parts: the ileum, jejunum, and duodenum, stored at −80° C. for enzyme assays and ELISA, or fixed in 10% neutral buffered formalin for intestinal morphology. Lung, liver and plasma were stored at −80° C. for enzyme assays and ELISA.
This example illustrates the effect of LGG on CINC-1. Small intestine and plasma CINC-1 levels were determined by TiterZyme Enzyme Immunometric Assay kits for rat growth-related oncogene/CINC-1 (Assay Designs, Ann Arbor, Mich.). Absorbance was determined at 450 nm, and concentration was calculated using the equation derived from a linear standard curve.
To further investigate the effects of the diets on CINC-1 peptide, CINC-1 production was evaluated by ELISA in the small intestine, liver, lung and plasma. In an initial experiment, LPS administration to rat pups caused an approximate 4-fold elevation in CINC-1 over non-LPS treated pups fed by gastrostomy (data not shown). […] In the liver and plasma, LGG supplementation reduced CINC-1 levels to a level which was very similar to that of mother's milk-fed rat pups.

[3] = tested on: cytokine/chemokine levels; test: Multiplex bead cytokine assay, liver cytokine/chemokine levels
Description: as §1, §2, §3
(§4) To further investigate the effects of LPS and LGG on cytokines, 14 cytokines/chemokines from lung, liver, plasma and distal small intestine were analyzed. […]

[4] = tested on: TNF-α; test: Multiplex bead cytokine assay, TNF-α
Description: as §1, §2, §3, §4

[5] = Growth (body weight) of gastrostomy-fed, LPS-treated rat pups; conditions: LGG 1×10^8 cfu/L/kg/day
Description: (§5) This example describes the materials and methods necessary to show the effect of LGG on formula-fed neonatal rat pups. In two separate experiments, ten Sprague-Dawley (Taconic, Germantown, N.Y.) infant rats were randomly assigned to two gastrostomy feeding groups with five rats per group. Gastrostomy feeding, using the rat infant “pup-in-the-cup” model, began on day 7 of life of the rat pups. The gastrostomy feeding tubes were constructed from 14-cm sections of polyethylene tubing that were inserted into the stomach of the pups. This is a commonly used model in studies of developmental nutrition when it is important to manipulate nutritional composition in the absence of maternal feedings. The gastrostomy placement was done under isoflurane anesthesia. […]
as §2, §3

[6] = tested on: IL-10; test: Multiplex bead cytokine assay, IL-10
Description: as §1, §2, §3, §4

[7] = tested on: IL-1β; test: Multiplex bead cytokine assay, IL-1β
Description: as §1, §2, §3, §4

[8] = tested on: GRO/KC (rat CINC-1); test: Multiplex bead cytokine assay, GRO/KC
Description: as §1, §2, §3, §4

[9] = tested on: IL-18; test: Multiplex bead cytokine assay, IL-18
Description: as §1, §2, §3, §4

[10] = tested on: ileum intestinal mucosa; test: Intestinal morphology of ileum (H&E stain) in LPS-treated rat pups
Description: as §5, §2, §3

[11] = tested on: IL-6; test: Multiplex bead cytokine assay, IL-6
Description: as §1, §2, §3, §4

[12] = tested on: MPO; test: MPO activity in distal small intestine and lung of rat pups
Description: as §1, §2, §3
This example illustrates the effect of LGG on MPO levels. […] MPO concentration of the supernatant was measured by the H2O2-dependent oxidation of tetramethylbenzidine. […]

Lactobacillus rhamnosus GG [LGG]
LPS induced elevation of TNF-α, lung ([1]; lung): significantly blunted
LPS induced elevation of TNF-α, plasma ([1]; plasma): significantly blunted
liver CINC-1 concentration ([2]; liver, LPS/LGG vs LPS): significantly attenuated
lung CINC-1 ([2]; lung, LPS/LGG vs LPS): significantly attenuated
plasma CINC-1 concentration ([2]; plasma, LPS/LGG vs LPS): significantly attenuated
intestinal CINC-1 levels ([2]; small intestine, LPS vs LPS/LGG vs mother-fed): did not differ significantly among the 3 groups
LPS induced increase of cytokine/chemokine levels in the liver [3]: blunted
LPS induced elevation of TNF-α, lung [4]: significantly blunted
weight gain [5]: did not improve weight gain
LPS induced elevation of IL-10, lung [6]: significantly blunted
LPS induced elevation of IL-1β, lung ([7]; lung): significantly blunted
LPS induced elevation of IL-1β, plasma ([7]; plasma): significantly blunted
LPS induced elevation of GRO/KC (rat CINC-1), lung ([8]; lung): significantly blunted
LPS induced elevation of GRO/KC (rat CINC-1), plasma ([8]; plasma): significantly blunted
LPS induced elevation of IL-18, lung ([9]; lung): significantly blunted
LPS induced elevation of IL-18, plasma ([9]; plasma): significantly blunted
ileum histological features (metaplasia, lymphoplasmacytic infiltrate, thinning of muscularis mucosa, regenerative crypt changes) ([10]; LPS plus LGG group vs LPS group): attenuated
physical damage in the intestinal mucosa ([10]; LPS/LGG group vs mother's milk-fed rat pups): reduced to a level similar to that of mother's milk-fed rat pups
LPS induced elevation of IL-6, lung ([11]; lung): significantly blunted
LPS induced elevation of IL-6, plasma ([11]; plasma): significantly blunted
LPS induced elevation of MPO, distal small intestine ([12]; distal small intestine): significantly blunted
LPS induced elevation of MPO, lung ([12]; lung): significantly blunted

Lipopolysaccharide (LPS) from Escherichia coli 0127:B8 [reference compound]
elevation in CINC-1 ([2]; initial experiment, over non-LPS treated pups fed by gastrostomy (data not shown)): approximately 4 fold
liver CINC-1 concentration, fold as high ([2]; liver, LPS treated group that did not receive LGG): ~2 fold
lung CINC-1 elevation ([2]; lung, LPS treatment compared to mother-fed controls): approximately 4 fold
plasma CINC-1 concentration, fold as high ([2]; plasma, LPS treated group that did not receive LGG): ~2 fold
